26 molecules from PubChem BioAssay (NCI) can be followed below.

Molecules are shown by their SMILES.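 Tested at 5 concentrations; 48 h exposure; 96-well plates; endpoints linearly interpolated, else capped at highest concentration. TGI marks complete inhibition of growth.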

Common to all, as to experiment: NCI-60 cell line screen, 48 h
Assay [1] relates to A498 renal.
Assay [2] has as its system HOP-92 NSCLC.
Assay [3] relates to KM12 colon.
Assay [4] has as its system NCI-H460 lung.
Assay [5] has as its system OVCAR-4 ovarian.
In assay [6] the test system is RXF 393 renal.
The subject of assay [7] is SF-295 CNS.
The test system of assay [8] is SK-OV-3 ovarian.
Assay [9] concerns SN12C renal.
In assay [10] the test system is SNB-75 CNS.
The subject of assay [11] is T-47D breast.
In assay [12] the test system is HCC-2998 colon.

As for `O=C(N/N=C1/C(=O)c2c3ccccc3cc3cccc1c23)c1ccccc1`, the TGI was > 57.4 µM in [1]; > 100 µM in assay [2]; > 31.6 µM in assay [3]; > 100 µM in [4]; 44.2 µM in assay [5]; 56.3 µM in [6]. In addition, the TGI in assay [7] is 52.2 µM; in [8], 75 µM; in [9] it was > 100 µM; in assay [10], 74.9 µM; in assay [11] it was 42 µM.
With `CC(C)=CCC/C(C)=C/CC/C(C)=C/CC/C(=C/CC/C(C)=C\CC/C(C)=C/CC/C(C)=C/CC/C(C)=C/Cc1cc(O)ccc1O)CO`, the TGI in [1] is 18.2 µM; in [12] it was > 42.1 µM; in assay [2], 31.4 µM; in [3], 4.16 µM; in assay [4] it was 33 µM; in assay [5], 19.7 µM. Besides, the TGI was 2 µM in assay [6]; 5.85 µM in [7]; 40.7 µM in assay [8]; > 100 µM in assay [9]; 12.7 µM in [10].
On to `O=C1OC(=O)c2cc(S(=O)(=O)c3ccc4c(c3)C(=O)OC4=O)ccc21`, for which the TGI in assay [12], in assay [3], in assay [4], in assay [5], in assay [6] and in assay [7] was > 100 µM each time. Moreover, the TGI in assay [8], in [9], in assay [10] and in assay [11] was > 100 µM in each case.
Turning to `FC(F)(F)c1cccc(-c2nc3ccccc3c3c2[C@@]2(N4CCCC4)CCCC[C@@H]32)c1`, the TGI in assay [1] was 95.6 µM; in assay [2], 55.2 µM; in assay [3], > 100 µM; in assay [4], > 100 µM; in assay [5] it was > 100 µM; in assay [6], > 100 µM. Besides, the TGI in [7] is 74.7 µM; in assay [8], > 100 µM; in assay [9] it was > 100 µM; in assay [10], > 100 µM; in assay [11], > 100 µM.
Take `Clc1ccc(C2Nc3ccccc3C3=NCCN32)cc1` (centres undefined): the TGI in assay [1] was 63.7 µM; in [2], 34 µM; in [3], 40.2 µM; in assay [4], 53 µM; in [5] it was > 100 µM; in [6], 58.8 µM. Further, the TGI in assay [7] is 35.4 µM; in [8], > 100 µM; in assay [9] it was > 100 µM; in assay [11] it was 46.9 µM.
On to `CC1=Nc2sc3c(c2C2=NCCN12)CCCC3`, for which the TGI in assay [1] was 90.6 µM; in assay [12], > 100 µM; in [3], > 100 µM; in [4], 39 µM; in assay [5], > 100 µM; in assay [6] it was 61 µM. Also, the TGI in assay [7] was 98.7 µM; in [9] it was 69.6 µM; in assay [10], > 100 µM; in assay [11], 88 µM.
For the molecule `CC1(C)C2CC(=O)C1(C)C(OCc1ccccc1)C2` (centres undefined), the TGI in assay [1], in assay [12], in assay [3], in assay [4], in assay [7] and in assay [8] was > 100 µM in each case. Also, the TGI in assay [9], in [10] and in assay [11] was > 100 µM throughout.
`CCOP(=O)(OCC)C(N)c1ccc(Cl)cc1` (centres undefined): the TGI in assay [1], in assay [2], in [3], in assay [4], in [5] and in [9] was > 100 µM in each case. Moreover, the TGI in assay [11] is > 100 µM.
In the case of `Cc1noc(NC2=CC(=O)C(=O)c3ccccc32)c1C`, the TGI was > 100 µM in assay [1]; 78.1 µM in [2]; 32.7 µM in [3]; > 100 µM in assay [4]; > 100 µM in assay [5]; > 100 µM in assay [7]. In addition, the TGI was > 100 µM in assay [8], 3.7 µM in [9], 82.5 µM in assay [10] and > 100 µM in assay [11].
For the molecule `COc1ccc(CN=C(N)N)c2ccccc12`, the TGI in assay [3] was > 100 µM; in assay [6], > 100 µM; in assay [7], 36.7 µM; in assay [8] it was > 100 µM; in assay [9] it was 52.4 µM; in assay [10], 55.2 µM. Further, in assay [11], the TGI was > 100 µM.
`O=S(=O)(/N=C(\NO)Nc1ccc(Cl)cc1)c1cccc2nsnc12`: the TGI in assay [2] was 73.7 µM; in assay [3], > 100 µM; in assay [4], > 100 µM; in assay [5] it was > 100 µM; in assay [6], > 100 µM; in assay [7] it was > 100 µM. Moreover, the TGI in [8] is > 100 µM; in assay [9], 63.1 µM; in [10], > 100 µM; in assay [11] it was > 100 µM.
`COc1ccc(C2C3COc4ccccc4C3=NN2c2ccccc2)cc1` (centres undefined): the TGI in assay [1], in assay [2], in assay [3], in [4], in assay [5] and in [6] was > 100 µM each time. Also, the TGI in [7], in [8], in assay [10] and in assay [11] was > 100 µM each time.
In the case of `CCCCCCCCCCCCCCCCOC[C@@H](COC(c1ccccc1)(c1ccccc1)c1ccccc1)O[P+](=S)OC` (some centres undefined), the TGI in assay [1] is 26.1 µM; in [2], 26.2 µM; in [3], 19.2 µM; in [4], 5.8 µM; in assay [5], 22.9 µM; in assay [6], 22.7 µM. For the same molecule, the TGI in assay [7] is 6.88 µM; in [8], 19.8 µM; in assay [9] it was 21.8 µM; in assay [10], 29.6 µM; in assay [11], 45 µM.
Take `Nc1ccc(C(=O)c2cn(CCN3CCOCC3)c3ccccc23)c2ccccc12`: the TGI in assay [1], in assay [12], in assay [3], in [4], in assay [5] and in assay [7] was > 100 µM throughout. For the same molecule, the results for the TGI in assay [8] and in assay [11] were > 100 µM and 72.8 µM, respectively.
With `O=[N+]([O-])c1cc2c(cc1/C=N/n1c(CO)nc3ccccc31)OCO2`, the TGI in assay [1], in assay [2], in assay [3], in assay [4], in [5] and in [6] was > 100 µM each time. Moreover, the TGI in assay [7], in assay [8], in assay [9], in [10] and in assay [11] was > 100 µM in each case.
As for `CCOC(=O)CC(=O)Nc1cccc2[nH]cnc12`, the TGI in [1], in assay [2], in assay [3], in assay [4], in assay [5] and in assay [6] was > 100 µM throughout. The TGI in assay [7] was > 100 µM; in assay [8] it was > 100 µM; in assay [9], > 100 µM; in assay [10], 98.1 µM; in assay [11] it was > 100 µM.
On to `C/C=C/C1OC(O)(C(C)C(O)[C@H](C)C2OC(=O)/C(OC)=C/C(C)=C/[C@@H](C)[C@@H](O)[C@@H](C)C(O)C(C)C/C(C)=C/C=C/C2OC)C[C@@H](OC2CC(O)C(OC(N)=O)C(C)O2)C1C` (some centres undefined), for which the TGI is 3.68 µM in assay [1]; < 0.01 µM in [12]; < 0.01 µM in assay [2]; 1.33 µM in assay [3]; 1.36 µM in assay [4]; 18.9 µM in [5]. In addition, the TGI was 1.91 µM in assay [6]; < 0.01 µM in assay [7]; > 43.4 µM in [8]; 15 µM in assay [9]; 2.12 µM in assay [10].
Take `COC(C)(C)C1(O)CCC(C)CC1=O` (centres undefined): the TGI in [1], in assay [12], in assay [2], in assay [3], in assay [4] and in assay [5] was > 100 µM in each case. The TGI in assay [6], in assay [7], in assay [8], in assay [9] and in assay [10] was > 100 µM each time.
`CN(/N=C/c1ccnc2ccccc12)c1ccc(Cl)cc1[N+](=O)[O-]`: the TGI in [1] is > 100 µM; in assay [12], > 100 µM; in [2], > 100 µM; in [3], > 100 µM; in assay [4] it was > 100 µM; in assay [5], 69.1 µM. Moreover, the TGI in assay [6], in assay [7], in assay [8], in assay [9] and in [10] was > 100 µM each time.
Take `Cc1ccc2nc(-c3ccc(N4C(=O)C(Cl)C4c4ccc(Cl)cc4)cc3)sc2c1` (centres undefined): the TGI was 18.9 µM in assay [2]; > 100 µM in assay [3]; 46.2 µM in assay [4]; 8.38 µM in assay [5]; 32.1 µM in assay [7]; 28 µM in assay [8]. The TGI in [9] was 53.6 µM; in assay [11], > 100 µM.
As to `CN(c1ccccc1Cl)S(=O)(=O)c1ccc([N+](=O)[O-])cc1`, the TGI in assay [12], in assay [3], in assay [4], in assay [5], in assay [6] and in assay [7] was > 100 µM throughout. Further, the TGI in assay [8], in assay [9], in assay [10] and in [11] was > 100 µM throughout.
For the molecule `FC1C2=C(SC1(F)F)C1CCC2C1` (centres undefined), the TGI in assay [2], in assay [3], in assay [4], in [5], in assay [6] and in [7] was > 100 µM in each case. In addition, the TGI in [8], in assay [10] and in assay [11] was > 100 µM each time.
Consider `COc1c(O)cc2c(c1O)C(=O)/C(=C/c1ccc(O)cc1)CO2`, for which the TGI is > 100 µM in [1]; > 100 µM in [2]; 34.4 µM in assay [3]; > 100 µM in assay [4]; 60.7 µM in assay [5]; > 100 µM in assay [6]. Besides, the TGI was > 100 µM in assay [7]; 59.3 µM in assay [8]; 55.5 µM in assay [9]; 57 µM in [10]; 94.8 µM in assay [11].
On to `COc1cc2c(cc1OC)C1(COc3cc(O)c(O)c(O)c3C1=O)C2` (centres undefined), for which the TGI in [1], in [3], in assay [4], in [5], in [6] and in assay [7] was > 50 µM each time. Moreover, the TGI in assay [8], in assay [9], in assay [10] and in assay [11] was > 50 µM in each case.
Take `Nc1nn2c(nc(N)c3c(N)[nH]nc32)c1N=Nc1ccc(Br)cc1`: the TGI in [1] is > 100 µM; in assay [12], > 100 µM; in assay [2], 28.1 µM; in [3], > 75.8 µM; in [4], > 100 µM; in assay [5] it was > 92.6 µM. The TGI in [6] is > 100 µM; in assay [7] it was > 100 µM; in assay [8], > 100 µM; in assay [9] it was 56.7 µM; in assay [10], 59.9 µM.
For the molecule `CC1C2(C)OC(=N)C(C#N)(C(c3cccc([N+](=O)[O-])c3)O2)C1(C#N)C#N` (centres undefined), the TGI was > 100 µM in assay [1]; 33.1 µM in assay [2]; > 100 µM in assay [3]; 29.7 µM in [4]; 43.9 µM in assay [6]; > 100 µM in assay [7]. The TGI in [8] was > 100 µM; in assay [9], 28.1 µM; in [10] it was > 100 µM; in assay [11], 35.9 µM.
